Our source for the Ki and pKB values is ChEMBL document CHEMBL1134877, “Design, synthesis and biological activity of carbohydrate-containing peptidomimetics as new ligands for the human tachykinin NK-2 receptor” (Bioorg Med Chem Lett, 2002).

The Ki is a measure of affinity in units of concentration, obtained from inhibition or displacement. Broadly, the pKB is −log10 of the KB, conventionally taken in molar units. Low values mean a high KB, high ones a low KB.

The target of one test is T1, Substance-K receptor (Homo sapiens, UniProt P21452).
T1 sequence (P21452 whole entry): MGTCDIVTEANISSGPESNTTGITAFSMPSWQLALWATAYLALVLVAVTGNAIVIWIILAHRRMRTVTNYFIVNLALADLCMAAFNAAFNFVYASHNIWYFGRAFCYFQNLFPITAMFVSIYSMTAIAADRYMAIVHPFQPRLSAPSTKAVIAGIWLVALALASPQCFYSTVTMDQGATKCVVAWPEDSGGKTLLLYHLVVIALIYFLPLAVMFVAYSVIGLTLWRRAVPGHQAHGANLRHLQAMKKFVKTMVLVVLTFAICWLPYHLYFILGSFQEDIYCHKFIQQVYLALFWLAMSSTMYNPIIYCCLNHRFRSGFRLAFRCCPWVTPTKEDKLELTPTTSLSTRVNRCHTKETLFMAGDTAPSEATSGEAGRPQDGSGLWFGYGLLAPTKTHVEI
The test can be described thus: Displacement of [125I]NKA from human Tachykinin receptor 2 expressed in CHO cells. In kind it is cell-based. A general note: Displacement assays read how much labelled ligand stays bound in the presence of the test substance.

Another test is filed under the species Oryctolagus cuniculus. Put plainly: Antagonist activity on isolated endothelium-deprived rabbit pulmonary artery preparations when evaluated against a contractile concentration response curve to NKA. In kind it is functional.

Molecules are shown by their SMILES.

Regarding `CCOC(=O)C1=C(C)OC2OC(CO)C(OCc3ccccc3)C(O)C2[S+]1[O-]` (stereo not given), the Ki at Substance-K receptor was greater than 10 µM.
On the same count and under the same terms, to `CCOC(=O)C1=C(C)OC2OC(COCc3ccccc3)C(O)C(OCc3ccccc3)C2[S+]1[O-]` (stereo not given) belongs greater than 10 µM.
In turn, `CCOC(=O)C1=C(C)OC2OC(COCc3ccccc3)C(OCc3ccccc3)C(OCc3ccccc3)C2[S+]1[O-]` (stereo not given) had a Ki at Substance-K receptor of 0.25 µM. For the same compound, the pKB in the test filed under Oryctolagus cuniculus is listed as 6.
The compound `O=C(C1=C(c2ccccc2)OC2OC(COCc3ccccc3)C(OCc3ccccc3)C(OCc3ccccc3)C2[S+]1[O-])c1ccccc1` (stereo not given) gave a Ki at Substance-K receptor of 0.79 µM.
With `O=C(C1=C(c2ccccc2)OC2OC(COCc3ccccc3)C(OCc3ccccc3)C(OCc3ccccc3)C2S1)c1ccccc1` (stereo not given), the inhibition constant Ki on Substance-K receptor was greater than 10 µM.
The same measure, in the same setting: to `CCOC(=O)C1=C(C)OC2OC(COCc3ccccc3)C(OCc3ccccc3)C(OCc3ccccc3)C2S1` (stereo not given) belongs 12.6 µM; to `CC1=C(C(=O)Oc2ccccc2)[S+]([O-])C2C(O1)OC(COCc1ccccc1)C(OCc1ccccc1)C2OCc1ccccc1` (stereo not given), 0.4 µM.
The same measure, in the same setting: under `CC1=C(C(=O)Oc2ccccc2)SC2C(O1)OC(COCc1ccccc1)C(OCc1ccccc1)C2OCc1ccccc1` (stereo not given) stands greater than 10 µM; under `CCOC(=O)C1=C(C)OC2OC(COCc3ccccc3)C(OCc3ccccc3)C(O)C2[S+]1[O-]` (stereo not given), 0.79 µM.
On the same count and under the same terms, to `O=C(C1=C(c2ccccc2)OC2OC(COCc3ccccc3)C(OCc3ccccc3)C(OCc3ccccc3)C2S1(=O)=O)c1ccccc1` (stereo not given) belongs 5.01 µM; to `CCOC(=O)C1=C(C)OC2OC(COCc3ccccc3)C(OCc3ccccc3)C(O)C2S1` (stereo not given), 12.6 µM; to `CCOC(=O)C1=C(C)OC2OC(CO)C(OCc3ccccc3)C(OCc3ccccc3)C2S1` (stereo not given), 4 µM.
Compound `CCOC(=O)C1=C(C)OC2OC(CO)C(OCc3ccccc3)C(OCc3ccccc3)C2[S+]1[O-]` (stereo not given) returned a Ki at Substance-K receptor of 4 µM.
On the same count and under the same terms, to `CCOC(=O)C1=C(C)OC2OC(CO)C(OCc3ccccc3)C(O)C2S1` (stereo not given) belongs greater than 10 µM.
